# Target: T1, inhibitor of nuclear factor kappa-B kinase subunit beta (IKKβ) (Homo sapiens, UniProt O14920)
# T1 construct: gene IKBKB
# T1 sequence (O14920 1-756): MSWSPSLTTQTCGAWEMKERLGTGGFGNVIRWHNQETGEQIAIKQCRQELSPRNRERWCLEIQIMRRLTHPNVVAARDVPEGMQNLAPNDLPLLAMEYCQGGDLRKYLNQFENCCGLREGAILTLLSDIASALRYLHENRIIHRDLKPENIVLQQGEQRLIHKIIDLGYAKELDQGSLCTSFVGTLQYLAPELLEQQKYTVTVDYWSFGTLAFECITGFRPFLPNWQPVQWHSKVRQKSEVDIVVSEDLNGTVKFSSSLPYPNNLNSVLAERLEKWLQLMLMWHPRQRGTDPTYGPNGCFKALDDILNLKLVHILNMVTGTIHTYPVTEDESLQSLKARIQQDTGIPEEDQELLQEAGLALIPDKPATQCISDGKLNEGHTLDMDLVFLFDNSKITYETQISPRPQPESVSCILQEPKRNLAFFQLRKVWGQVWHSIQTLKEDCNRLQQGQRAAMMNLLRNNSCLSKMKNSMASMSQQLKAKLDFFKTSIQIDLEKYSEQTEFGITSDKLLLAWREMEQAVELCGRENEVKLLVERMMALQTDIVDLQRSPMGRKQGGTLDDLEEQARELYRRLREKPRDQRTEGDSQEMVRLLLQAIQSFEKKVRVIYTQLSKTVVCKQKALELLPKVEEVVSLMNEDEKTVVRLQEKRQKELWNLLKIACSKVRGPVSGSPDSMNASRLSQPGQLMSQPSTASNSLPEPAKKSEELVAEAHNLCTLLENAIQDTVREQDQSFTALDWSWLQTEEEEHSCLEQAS
# Test: IKKβ kinase activity assay (dose response, ATP dependence, M96V gatekeeper resistance); supported by cellular thermal shift assay in human podocytes
# Format: biochemical
compound,measurement,value
CSc1ccc(NC(=O)Nc2ccc(C)nc2)cc1 [BT503],IC50,163 nM
